The values that follow come from patent US20080267882A1, “Imaging compounds, methods of making imaging compounds, methods of imaging, therapeutic compounds, methods of making therapeutic compounds, and methods of therapy” (Stanford University, priority 2007, published 2008).

Like-named read-outs stand apart in the source and are kept apart here.

Data set [1] in a line: in vivo. As to conditions: female, nude, mouse, total radioactivity. Here is the method:
All mice were sacrificed and dissected at 1 h after injection of the tracer. Blood, tumor, major organs and tissues were collected and wet weighed. The radioactivity in the tissue was measured using a γ-counter (Packard). The results were presented as percentage injected dose per gram of tissue (% ID/g).

Data set [2] is described as follows: in vivo. Conditions: mouse, iv, total radioactivity. The method, then: (§1) PET scans and image analysis were performed using a microPET R4 rodent model scanner (Siemens Medical Solutions) as previously reported (J Nucl Med 2006;47:113-121 and J Nucl Med 2005;46:1707-1718, each of which is incorporated herein by reference for the corresponding discussion). Each mouse was tail-vein injected with about 3.7 MBq (100 μCi) of ^18F-FPRGD2 under isoflurane anesthesia. The 30-min dynamic scan (1×30 s, 4×1 min, 1×1.5 min, 4×2 min, 1×2.5 min, 4×3 min, total of 15 frames) was started 1 min after injection. Five min static PET images were also acquired at 1 h and 2 h post-injection (p.i.). The images were reconstructed by a 2-dimensional ordered-subsets expectation maximum (OSEM) algorithm and no correction was applied for attenuation or scatter.
(§2) PET scans and image analysis were performed using a microPET R4 rodent model scanner (Siemens Medical Solutions) as previously reported. For U87MG tumor model, mice (n=3) were tail-vein injected with about 3.7 MBq (100 μCi) of ^18F-FPRGD4 under isoflurane anesthesia and then subjected to a 30-min dynamic scan (1×30 s, 4×1 min, 1×1.5 min, 4×2 min, 1×2.5 min, 4×3 min, total of 15 frames) starting from 1 min p.i. Five min static PET images were also acquired at 1, 2, and 3 h p.i. The images were reconstructed by 2-dimensional ordered-subsets expectation maximum (OSEM) algorithm. No attenuation or scatter correction was applied. […] The 5-min static PET scans was then acquired at 30 min and 1 h p.i. Multiple time point static scans were also obtained for orthotopic MDA-MB-435, c-neu oncomouse, and subcutaneous DU145 tumor models after tail-vein injected with 3.7 MBq of ^18F-FPRGD4.
(§3) For each microPET scan, regions of interest (ROIs) were drawn over the tumor, normal tissue, and major organs by using vendor software (ASI Pro 5.2.4.0) on decay-corrected whole-body coronal images. The maximum radioactivity concentration (accumulation) within a tumor or an organ was obtained from mean pixel values within the multiple ROI volume, which were converted to counts/mL/min by using a conversion factor. Assuming a tissue density of 1 g/mL, the ROIs were converted to counts/g/min and then divided by the administered activity to obtain an imaging ROI-derived % ID/g. […]
(§4) PET scans and image analysis were performed using a microPET R4 rodent model scanner (Siemens Medical Solutions) as previously reported (J Nucl Med. 2005;46:1707-1718 and J Nucl Med. 2006;47:113-121, each of which is incorporated herein by reference for the corresponding discussion). About 9.3 MBq of ^64Cu-DOTA-RGD multimer was intravenously injected into each mouse under isoflurane anesthesia. Five minute static scans were acquired at 30 min, 1 h, 2 h, 6 h, and 20 h p.i. The images were reconstructed by a 2-dimensional ordered-subsets expectation maximum (OSEM) algorithm and no correction was applied for attenuation and scatter. For each microPET scan, regions of interest (ROIs) were drawn over the tumor, normal tissue, and major organs on decay-corrected whole-body coronal images. The radioactivity concentration (accumulation) within a tumor was obtained from the maximum value within the multiple ROIs and then converted to % ID/g.
(§5) PET scans and image analysis were performed using a microPET R4 rodent model scanner (Siemens Medical Solutions) as previously reported (J Nucl Med. 2006;47:113-21 and J Nucl Med. 2005;46:1707-18, which is incorporated herein by reference for the corresponding discussion). […] The 60-min dynamic scan (5×1 min, 10×3 min, 5×5 min, total of 20 frames) was started 1 min after injection. A 2 h time point static scan was also acquired after the 60 min dynamic scan. Five min static PET images were also acquired separately at 30 min, 1 h and 2 h time points post-injection (p.i.) for another set of tumor-bearing mice (n=3/tracer). The images were reconstructed by a 2-dimensional ordered-subsets expectation maximum (OSEM) algorithm and no correction was necessary for attenuation or scatter correction. […]

The next data set deals with U87MG tumor-bearing mice. The experiment in a line: in vivo. Conditions: mouse; for U87MG tumor uptake: iv, 3.7 MBq. Here is the method: as §1, §2, §3, §4, §5
The conditions of data set [3]: mouse, in vivo. Here is the method:
A U87MG tumor mouse was intravenously injected with 3.7 MBq of ^18F-FPRGD2. At 1 h after injection, the mouse was sacrificed, the blood, urine, liver, kidneys, and the U87MG tumor were collected and metabolite analysis was carried out as previously reported (J Nucl Med 2006;47: 113-121 and J Nucl Med 2006;47:1172-1180, each of which is incorporated herein by reference for the corresponding discussion). In brief, blood sample was immediately centrifuged for 5 min at 13,200 rpm. Other tissues were homogenized and then centrifuged for 5 min at 13,200 rpm. The supernatant was each passed through a C18 Sep-Pak cartridge. The urine sample was directly diluted with 1 mL of PBS and passed through a C18 Sep-Pak cartridge. The cartridges were each washed with 2 mL of water and eluted with 2 mL of ACN containing 0.1% TFA. The ACN eluent was concentrated and injected onto the analytical HPLC. The eluent was collected with a fraction collector (0.5 min/fraction) and the radioactivity of each fraction was measured with the γ-counter.
The metabolic stability of ^18F-FPTA-RGD2 was evaluated in an athymic nude mouse bearing a U87MG tumor. Sixty min after intravenous injection of 2 MBq of ^18F-FPTA-RGD2, the mouse was sacrificed and relevant organs were harvested. The blood was collected and immediately centrifuged for 5 min at 13,200 rpm. Liver, kidneys and tumor were homogenized and then centrifuged for 5 min at 13,200 rpm. After removal of the supernatants, the pellets were washed with 1 mL PBS. For each sample, supernatants of both centrifugation steps of blood, liver, and kidneys were combined and passed through C18 Sep-Pak cartridges. The urine sample was directly diluted with 1 mL of PBS and passed through a C18 Sep-Pak cartridge. The cartridges were each washed with 2 mL of water and eluted with 2 mL of ACN containing 0.1% TFA. After evaporation of the solvent, the residues were redissolved in 1 mL PBS and were injected onto the analytical HPLC. The eluent was collected with a fraction collector (0.5 min/fraction) and the radioactivity of each fraction was measured with the γ-counter.

A further data set addresses T1, integrin αvβ3 (Homo sapiens, UniProt P05106+P06756).
T1 construct: evaluated using U87MG cells (integrin αvβ3-positive); endogenous in cells; host or cells: U87MG human glioblastoma cells (ATCC)
The experiment in a line: competitive cell binding assay using ^125I-echistatin on U87MG cells. Put shortly:
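Whole U87MG human glioblastoma cells were used. Test compounds competed with ^125I-echistatin, an αvβ3-specific radioligand, in displacement binding. Samples were run in triplicate.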

Another data set has as its system U87MG cells. In words: cell adhesion assay on vitronectin coated plates. Type of data set: cell-based, human. The method, then: Ninety-six well plates were coated with 2 μg/mL of fibronectin or vitronectin (Sigma-Aldrich) in PBS at 4° C. overnight and treated with 2% bovine serum albumin (BSA) for 1 h at 37° C. U87MG cells (human glioblastoma, ATCC; 2×10^5 cells/mL) with various concentrations of RGD multimers (50 nM, 200 nM, 800 nM) in 100 μL serum-free Dulbecco's modified Eagle's medium (DMEM) containing 0.1% BSA were incubated for 20 min at 37° C. The resulting mixture was added to the plates and incubated for 1 h at 37° C. Plates treated with BSA only were used as negative control. After removal of the medium by aspiration, 0.04% crystal violet solution was added and incubated for 10 min at room temperature. The wells were washed three times with PBS and 20 μL Triton X-100 were added for permeabilization. Distilled water (80 μL) was then added and the number of adherent cells was assessed with a microplate reader (Tecan; measurement wavelength: 550 nm; reference wavelength: 630 nm).

Where [4] appears, read: athymic nude, 3.7 MBq, U87MG tumor uptake.
The mark [5] stands for this setting: nude, 3.7 MBq, U87MG tumor uptake.
[6] abbreviates: IC50 of RGD monomer divided by IC50 of RGD multimer.

Consider `N=C(N)NCCC[C@@H]1NC(=O)[C@H](CCCCNC(=O)CC[C@H](NC(=S)Nc2ccc(C[C@H]3CN(CC(=O)O)CCN(CC(=O)O)CCN3CC(=O)O)cc2)C(=O)NCCCC[C@@H]2NC(=O)[C@@H](Cc3ccc(O)cc3)NC(=O)[C@H](CC(=O)O)NC(=O)CNC(=O)[C@H](CCCNC(=N)N)NC2=O)NC(=O)[C@@H](Cc2ccc(O)cc2)NC(=O)[C@H](CC(=O)O)NC(=O)CNC1=O` [^68Ga-NOTA-RGD2, metal not drawn], for which the tissue uptake at 1 h in “in vivo [1]” (10 mg/kg, tumor uptake with blocking) was 0.21 ± 0.03 %ID/g; in the data set “in vivo [1]” (3.7 MBq, kidney uptake), 4.3 ± 0.25 %ID/g; in the data set “in vivo [1]” (3.7 MBq, tumor uptake), 3.82 ± 0.7 %ID/g; in the data set “in vivo [1]” (3.7 MBq, uptake values in the other major organs) it was no more than 1 %ID/g; in the data set “in vivo [2]” (setting [4]), 2.8 ± 0.11 %ID/g; in “in vivo [2]” (athymic nude, 3.7 MBq, kidney uptake), 2 %ID/g. In addition, the tissue uptake at 1 h in the data set “in vivo [2]” (female, athymic nude, 10 mg/kg, U87MG tumor uptake with blocking) was determined as 0.31 ± 0.02 %ID/g; in the data set “in vivo [2]” (setting [5]), 2.34 %ID/g; in the data set “in vivo [2]” (nude, 3.7 MBq, kidney uptake), 4.6 %ID/g. For the same compound, the tissue uptake at 0.5 h in “in vivo [2]” (setting [4]) turned out to be 2.6 ± 0.2 %ID/g; in the data set “in vivo [2]” (setting [5]) it was 2.79 %ID/g. Besides, the tissue uptake at 2 h in “in vivo [2]” (setting [4]) was found to be 1.7 ± 0.1 %ID/g; in “in vivo [2]” (setting [5]), 1.89 %ID/g. Also, the tissue uptake at 5 min in “in vivo [2]” (setting [5]) came out at 4.39 %ID/g. The tissue uptake at 0.25 h in the data set “in vivo [2]” (setting [5]) stood at 3.46 %ID/g. Further, in the data set with U87MG tumor-bearing mice (athymic nude, 1 h), the U87MG tumor uptake is recorded as 2.2±0.1 % ID/g.
Take “^18F-FB-E[c(RGDyK)]2 [^18F-FRGD2, reference compound]”: the “residence time for kidneys” value in the data set with U87MG tumor-bearing mice was determined as 0.029 h.
Take `N=C(N)NCCC[C@@H]1NC(=O)[C@H](CCCCNC(=S)Nc2ccc(C[C@H]3CN(CC(=O)O)CCN(CC(=O)O)CCN3CC(=O)O)cc2)NC(=O)[C@@H](Cc2ccc(O)cc2)NC(=O)[C@H](CC(=O)O)NC(=O)CNC1=O` [^68Ga-NOTA-RGD1, metal not drawn]: in “in vivo [2]” (setting [4]), the tissue uptake at 0.5 h worked out at 1.9 ± 0.2 %ID/g, the tissue uptake at 1 h is 1.4 ± 0.2 %ID/g and the tissue uptake at 2 h was 1.1 ± 0.1 %ID/g. Further, in the data set “in vivo [2]” (setting [5]), the tissue uptake at 0.25 h stood at 2.35 %ID/g, the tissue uptake at 0.5 h came out at 1.84 %ID/g, the tissue uptake at 1 h is 1.47 %ID/g and the tissue uptake at 2 h turned out to be 1.12 %ID/g. For the same compound, in the data set on U87MG tumor-bearing mice (5 min), the U87MG tumor uptake turned out to be 3.24 % ID/g.
“^18F-fluoro-PEG-triazole-E(RGDyK)2 [^18F-FPTA-RGD2]”: in data set [3], the “extraction efficiency (radioactivity in the supernatant)” value was 86-99% and the “non-retained fraction (activity not trapped on C18 cartridges)” value is 1-41%.
Consider `N=C(N)NCCC[C@@H]1NC(=O)[C@H](CCCCNC(=O)CC[C@H](NC(=O)CC[C@H](NC(=O)CC[C@H](N)C(=O)N[C@@H](CCC(=O)N[C@@H](CCC(=O)NCCCC[C@@H]2NC(=O)[C@@H](Cc3ccc(O)cc3)NC(=O)[C@H](CC(=O)O)NC(=O)CNC(=O)[C@H](CCCNC(=N)N)NC2=O)C(=O)NCCCC[C@@H]2NC(=O)[C@@H](Cc3ccc(O)cc3)NC(=O)[C@H](CC(=O)O)NC(=O)CNC(=O)[C@H](CCCNC(=N)N)NC2=O)C(=O)N[C@@H](CCC(=O)NCCCC[C@@H]2NC(=O)[C@@H](Cc3ccc(O)cc3)NC(=O)[C@H](CC(=O)O)NC(=O)CNC(=O)[C@H](CCCNC(=N)N)NC2=O)C(=O)NCCCC[C@@H]2NC(=O)[C@@H](Cc3ccc(O)cc3)NC(=O)[C@H](CC(=O)O)NC(=O)CNC(=O)[C@H](CCCNC(=N)N)NC2=O)C(=O)N[C@@H](CCC(=O)NCCCC[C@@H]2NC(=O)[C@@H](Cc3ccc(O)cc3)NC(=O)[C@H](CC(=O)O)NC(=O)CNC(=O)[C@H](CCCNC(=N)N)NC2=O)C(=O)NCCCC[C@@H]2NC(=O)[C@@H](Cc3ccc(O)cc3)NC(=O)[C@H](CC(=O)O)NC(=O)CNC(=O)[C@H](CCCNC(=N)N)NC2=O)C(=O)NCCCC[C@@H]2NC(=O)[C@@H](Cc3ccc(O)cc3)NC(=O)[C@H](CC(=O)O)NC(=O)CNC(=O)[C@H](CCCNC(=N)N)NC2=O)NC(=O)[C@@H](Cc2ccc(O)cc2)NC(=O)[C@H](CC(=O)O)NC(=O)CNC1=O` [RGD octamer, E(E{E[c(RGDyK)]2}2)2], for which, at integrin αvβ3 (Example 4), the “further fold increase of integrin avidity over RGD tetramer” value amounted to 3 fold. The IC50 was 10 nM at integrin αvβ3 (Example 4, introduction, read-out: IC50 value (αvβ3 integrin binding)) and 10 nM on integrin αvβ3 (Example 4, n=3, read-out: IC50 (inhibition of ^125I-echistatin binding to U87MG cells)). The “receptor binding multivalent enhancement ratio (MVE)” value on integrin αvβ3 (setting [6]) was determined as 20.3. In the data set on U87MG cells (setting [6]), the “anti-adhesion multivalent enhancement ratio (MVE)” value stood at 25.6. Further, the “times as effective as the RGD monomer” value in the data set on U87MG cells (vitronectin coated plates) was determined as 27 times.
